Assay results taken from article PMC4772718 (Bioconjugate chemistry, 2015).

Target: Bruton's tyrosine kinase (Btk) (Homo sapiens, UniProt Q06187)
Test: IC50
Type: biochemical

Sequence of Bruton's tyrosine kinase (Btk) (Q06187 2-659): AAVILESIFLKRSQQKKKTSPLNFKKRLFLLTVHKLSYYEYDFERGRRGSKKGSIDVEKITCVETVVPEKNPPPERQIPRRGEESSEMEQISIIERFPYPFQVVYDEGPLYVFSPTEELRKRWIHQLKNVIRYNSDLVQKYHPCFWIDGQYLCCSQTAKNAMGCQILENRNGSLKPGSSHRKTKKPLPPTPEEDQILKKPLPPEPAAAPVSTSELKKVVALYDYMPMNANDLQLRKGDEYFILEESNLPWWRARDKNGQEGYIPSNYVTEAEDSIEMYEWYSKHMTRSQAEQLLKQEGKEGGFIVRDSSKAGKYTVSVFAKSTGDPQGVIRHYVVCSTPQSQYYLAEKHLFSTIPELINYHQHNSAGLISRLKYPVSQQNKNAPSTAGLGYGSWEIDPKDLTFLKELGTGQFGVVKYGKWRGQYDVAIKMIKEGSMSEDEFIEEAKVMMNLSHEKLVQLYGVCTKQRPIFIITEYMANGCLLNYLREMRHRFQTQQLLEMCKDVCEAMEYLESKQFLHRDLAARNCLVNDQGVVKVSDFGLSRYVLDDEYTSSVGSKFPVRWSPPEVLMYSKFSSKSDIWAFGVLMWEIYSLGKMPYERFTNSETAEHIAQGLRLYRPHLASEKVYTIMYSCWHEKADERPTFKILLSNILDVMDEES

- IC50: 0.284 µM
Substance: AVL-292-SiR-COOH
